Patent US7566712B2, “Biaryl piperazinyl-pyridine analogues” (Neurogen Corporation, priority 2003, dated 2009)

target: T1, human capsaicin receptor (Homo sapiens, UniProt Q8NER1); experiment: Calcium mobilization assay, determination of antagonist activity (Example 6); format: cell-based; conditions: Table II; IC50 determined as described in Example 6
T1 construct: pBK-CMV expression construct encoding the full length human capsaicin receptor; expressed in transfected cells
Outline: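 Antagonism measured as inhibition of capsaicin-evoked (final concentration = EC50, from an 8-point 1 nM–3 μM curve) Fluo-3 calcium signal in stable hVR1-HEK293 cells. Test compounds at 1–5 μM final, 0.5–6 h dark preincubation at room temperature. IC50 = concentration giving 50% reduction versus agonist-only response.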

T1 sequence (Q8NER1 whole entry): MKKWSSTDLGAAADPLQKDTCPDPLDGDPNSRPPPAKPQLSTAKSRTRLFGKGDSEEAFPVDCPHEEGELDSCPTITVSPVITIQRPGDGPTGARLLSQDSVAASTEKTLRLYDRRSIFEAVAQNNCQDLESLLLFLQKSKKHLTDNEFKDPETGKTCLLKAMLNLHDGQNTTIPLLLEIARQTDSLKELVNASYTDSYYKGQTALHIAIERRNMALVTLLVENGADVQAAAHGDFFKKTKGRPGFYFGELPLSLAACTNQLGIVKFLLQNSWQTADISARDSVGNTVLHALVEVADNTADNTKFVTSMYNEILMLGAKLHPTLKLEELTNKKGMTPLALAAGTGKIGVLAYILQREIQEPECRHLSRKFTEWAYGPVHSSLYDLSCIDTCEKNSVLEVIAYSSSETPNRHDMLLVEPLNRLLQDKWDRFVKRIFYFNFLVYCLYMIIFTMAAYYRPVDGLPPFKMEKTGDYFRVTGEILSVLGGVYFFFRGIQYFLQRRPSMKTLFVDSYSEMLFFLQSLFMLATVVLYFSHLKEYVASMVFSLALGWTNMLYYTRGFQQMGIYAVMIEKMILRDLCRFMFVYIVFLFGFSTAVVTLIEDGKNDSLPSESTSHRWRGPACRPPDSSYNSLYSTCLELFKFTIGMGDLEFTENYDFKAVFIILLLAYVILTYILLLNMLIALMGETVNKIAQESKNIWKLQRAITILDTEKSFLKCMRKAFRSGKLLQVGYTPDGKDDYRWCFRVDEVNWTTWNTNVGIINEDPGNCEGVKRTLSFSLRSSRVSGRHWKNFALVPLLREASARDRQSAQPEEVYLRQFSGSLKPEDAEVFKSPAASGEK

IC50, ≤ 1000 nM:
CSc1cccc(-c2cc(N3CCN(c4ncccc4Cl)C[C@H]3C)nc(N3CCOCC3)n2)c1 [Example 539, 4-{4-[(2R)-4-(3-chloropyridin-2-yl)-2-methylpiperazin-1-yl]-6-[3-(methylthio)phenyl]pyrimidin-2-yl}morpholine]
C=CCN1CCN(c2nc(-c3cccc(F)c3)nc(N3CCN(c4ncccc4C(F)(F)F)CC3)n2)CC1 [Example 448, 2-(4-allylpiperazin-1-yl)-4-(3-fluorophenyl)-6-{4-[3-(trifluoromethyl)pyridin-2-yl]piperazin-1-yl}-1,3,5-triazine]
Cc1ccc(-c2cc(N3CCN(c4ncccc4C#N)C[C@H]3C)nc(N3CCOCC3)n2)cc1F [Example 493, 2-{(3R)-4-[6-(3-fluoro-4-methylphenyl)-2-morpholin-4-ylpyrimidin-4-yl]-3-methylpiperazin-1-yl}nicotinonitrile]
Fc1ccc(-c2cc(N3CCN(c4ncccc4C(F)(F)F)CC3)nc(OCC3CCNC3)n2)cc1Cl (stereo not drawn) [Example 560, 4-(3-chloro-4-fluorophenyl)-2-(pyrrolidin-3-ylmethoxy)-6-{4-(3-(trifluoromethyl)pyridin-2-yl]piperazin-1-yl}pyrimidine]
Cc1cc(-c2cc(N3CCN(c4ncccc4C(F)(F)F)C[C@H]3C)nc(N3CCOCC3)n2)ccc1F [Example 497, 4-(4-(4-fluoro-3-methylphenyl)-6-{(2R)-2-methyl-4-[3-(trifluoromethyl)pyridin-2-yl]piperazin-1-yl}pyrimidin-2-yl)morpholine]

same assay, conditions: Table II; determined as described in Example 6 (antagonist activity); "*" = 1 micromolar or less

IC50, ≤ 1000 nM:
CC(=O)c1ccc(-c2cc(N3CCN(c4ncccc4Cl)C[C@H]3C)nc(N3CCCC3C)n2)cc1 (stereo partly drawn) [Example 857, 1-{4-[6-[4-(3-chloropyridin-2-yl)-2-methylpiperazin-1-yl]-2-(2-methylpyrrolidin-1-yl)pyrimidin-4-yl]phenyl}ethanone]
C[C@H]1CN(c2ncccc2Cl)CCN1c1cc(-c2ccc(F)c(Cl)c2)nc(N2CCCC2)n1 [Example 946, 4-(3-chloro-4-fluorophenyl)-6-[(2S)-4-(3-chloropyridin-2-yl)-2-methylpiperazin-1-yl]-2-pyrrolidin-1-ylpyrimidine]
CC1CCCN1c1nc(-c2ccc(-c3ncon3)cc2)cc(N2CCN(c3ncccc3Cl)C[C@H]2C)n1 (stereo partly drawn) [Example 865, 4-[4-(3-chloropyridin-2-yl)-2-methylpiperazin-1-yl]-2-(2-methylpyrrolidin-1-yl)-6-[4-(1,2,4-oxadiazol-3-yl)phenyl]pyrimidine]
C[C@@H]1CN(c2ncccc2F)CCN1c1cc(-c2ccc(F)c(F)c2)nc(Cl)n1 [Example 894, 2-chloro-4-(3,4-difluorophenyl)-6-[(2R)-4-(3-fluoropyridin-2-yl)-2-methylpiperazin-1-yl]pyrimidine]
C[C@H]1CN(c2ncccc2Cl)CCN1c1cc(-c2ccc(F)c(F)c2)nc(N2CCOCC2)n1 [Example 923, 4-[4-[(2S)-4-(3-chloropyridin-2-yl)-2-methylpiperazin-1-yl]-6-(3,4-difluorophenyl)pyrimidin-2-yl]morpholine]
CC1CCCN1c1nc(-c2ccc(F)c(F)c2)cc(N2CCN(c3nccnc3Cl)C[C@@H]2C)n1 (stereo partly drawn) [Example 938, 4-[(2S)-4-(3-chloropyrazin-2-yl)-2-methylpiperazin-1-yl]-6-(3,4-difluorophenyl)-2-(2-methylpyrrolidin-1-yl)pyrimidine]
Cc1ccc(-c2cc(N3CCN(c4ncccc4Cl)C[C@H]3C)nc(N3CCCC3C)n2)cc1F (stereo partly drawn) [Example 803, 4-[(2R)-4-(3-chloropyridin-2-yl)-2-methylpiperazin-1-yl]-6-(3-fluoro-4-methylphenyl)-2-(2-methylpyrrolidin-1-yl)pyrimidine]
C[C@@H]1CN(c2nccnc2Cl)CCN1c1nc(Cl)cc(-c2ccc(F)cc2)n1 [Example 919, 4-chloro-2-[(2R)-4-(3-chloropyrazin-2-yl)-2-methylpiperazin-1-yl]-6-(4-fluorophenyl)pyrimidine]
C[C@@H]1CN(c2ncccc2Cl)CCN1c1cc(-c2ccc(F)cc2)nc(N2CCCCC2)n1 [Example 844, 4-[(2R)-4-(3-chloropyridin-2-yl)-2-methylpiperazin-1-yl]-6-(4-fluorophenyl)-2-piperidin-1-ylpyrimidine]
C[C@@H]1CN(c2nccnc2Cl)CCN1c1cc(-c2ccc(F)c(F)c2)nc(N2CCOCC2)n1 [Example 822, 4-[4-[(2R)-4-(3-chloropyrazin-2-yl)-2-methylpiperazin-1-yl]-6-(3,4-difluorophenyl)pyrimidin-2-yl]morpholine]

same assay, conditions: Table II; determined as described in Example 6; class symbol

IC50, ≤ 1000 nM:
c1ccc(N2CCN(c3nc(-c4cccc5ccccc45)nc(N4CCOCC4)n3)CC2)nc1 [Example 270, 2-morpholin-4-yl-4-(1-naphthyl)-6-(4-pyridin-2-ylpiperazin-1-yl)-1,3,5-triazine]

same assay, conditions: determined as described in Example 6 (calcium mobilization, antagonist activity); Table II

IC50, ≤ 1000 nM:
COC[C@H]1CCCN1c1nc(-c2ccc(F)c(C)c2)cc(N2CCN(c3ncccc3Cl)C[C@H]2C)n1 [Example 728, 4-[(2R)-4-(3-chloropyridin-2-yl)-2-methylpiperazin-1-yl]-6-(4-fluoro-3-methylphenyl)-2-[(2R)-2-(methoxymethyl)pyrrolidin-1-yl]pyrimidine]
C[C@@H]1CN(c2ncccc2C(F)(F)F)CCN1c1cc(-c2ccc(F)c(Cl)c2)nc(N2CCCC2)n1 [Example 763, 4-(3-chloro-4-fluorophenyl)-6-{(2R)-2-methyl-4-[3-(trifluoromethyl)pyridin-2-yl]piperazin-1-yl}-2-pyrrolidin-1-ylpyrimidine]
CC(C)N(CCO)c1nc(-c2ccc(F)c(Cl)c2)cc(N2CCN(c3ncccc3C(F)(F)F)CC2)n1 [Example 644, 2-[(4-(3-chloro-4-fluorophenyl)-6-{4-[3-(trifluoromethyl)pyridin-2-yl]piperazin-1-yl}pyrimidin-2-yl)(isopropyl)amino]ethanol]
Fc1ccc(-c2cc(N3CCN(c4ncccc4C(F)(F)F)CC3)nc(NC3CCCC3)n2)cc1Cl [Example 693, 4-(3-chloro-4-fluorophenyl)-N-cyclopentyl-6-{4-[3-(trifluoromethyl)pyridin-2-yl]piperazin-1-yl}pyrimidin-2-amine]
Cc1cc(-c2cc(N3CCN(c4ncccc4C(F)(F)F)C[C@H]3C)nc(N3CCCC3)n2)ccc1F [Example 753, 4-(4-fluoro-3-methylphenyl)-6-{(2R)-2-methyl-4-[3-(trifluoromethyl)pyridin-2-yl]piperazin-1-yl}-2-pyrrolidin-1-ylpyrimidine]
Cc1cc(-c2cc(N3CCN(c4ncccc4C(F)(F)F)CC3)nc(N3CCC3(C)C)n2)ccc1F [Example 766, 2-(2,2-dimethylazetidin-1-yl)-4-(4-fluoro-3-methylphenyl)-6-{4-[3-(trifluoromethyl)pyridin-2-yl]piperazin-1-yl}pyrimidine]
Cc1cc(-c2cc(N3CCN(c4ncccc4C(F)(F)F)CC3)nc(N3CCCC3)n2)ccc1F [Example 674, 4-(4-fluoro-3-methylphenyl)-2-pyrrolidin-1-yl-6-{4-[3-(trifluoromethyl)pyridin-2-yl]piperazin-1-yl}pyrimidine]
CC1CCCN1c1nc(-c2ccc(F)cc2)cc(N2CCN(c3ncccc3C(F)(F)F)CC2)n1 (stereo not drawn) [Example 705, 4-(4-fluorophenyl)-2-(2-methylpyrrolidin-1-yl)-6-{4-[3-(trifluoromethyl)pyridin-2-yl]piperazin-1-yl}pyrimidine]
O=S(=O)(Cc1ccccc1)c1nc(-c2ccc(F)c(Cl)c2)cc(N2CCN(c3ncccc3Cl)CC2)n1 [Example 701, 2-(benzylsulfonyl)-4-(3-chloro-4-fluorophenyl)-6-[4-(3-chloropyridin-2-yl)piperazin-1-yl]pyrimidine]
CCC(=O)N1CCN(c2nc(-c3ccc(F)c(Cl)c3)cc(N3CCN(c4ncccc4C(F)(F)F)CC3)n2)CC1 [Example 626, 4-(3-chloro-4-fluorophenyl)-2-(4-propionylpiperazin-1-yl)-6-{4-[3-(trifluoromethyl)pyridin-2-yl]piperazin-1-yl}pyrimidine]
CC1CCCN1c1nc(-c2ccc(F)cc2)cc(N2CCN(c3ncccc3F)CC2)n1 (stereo not drawn) [Example 749, 4-(4-fluorophenyl)-6-[4-(3-fluoropyridin-2-yl)piperazin-1-yl]-2-(2-methylpyrrolidin-1-yl)pyrimidine]
CC(C)c1nccn1-c1nc(-c2cccc(Cl)c2)cc(N2CCN(c3ncccc3C(F)(F)F)CC2)n1 [Example 618, 4-(3-chlorophenyl)-2-(2-isopropyl-1H-imidazol-1-yl)-6-{4-[3-(trifluoromethyl)pyridin-2-yl]piperazin-1-yl}pyrimidine]
Fc1ccc(-c2cc(N3CCN(c4ncccc4C(F)(F)F)CC3)nc(-c3ncc[nH]3)n2)cc1Cl [Example 656, 4-(3-chloro-4-fluorophenyl)-2-(1H-imidazol-2-yl)-6-{4-[3-(trifluoromethyl)pyridin-2-yl]piperazin-1-yl}pyrimidine]
Cc1cc(-c2cc(N3CCN(c4ncccc4C(F)(F)F)CC3)nc(N3CCOCC3)n2)ccc1F [Example 576, 4-(4-(4-fluoro-3-methylphenyl)-6-{4-[3-(trifluoromethyl)pyridin-2-yl]piperazin-1-yl}pyrimidin-2-yl)morpholifle]
